# Results reported in patent US11246314B2, “Trichome and pistil maturing formulation” (priority 2015, dated 2022).
# Experiments:
# Format in all cases: in vivo
# Conditions in all cases: in words
# [1] = test system: pistils of Cannabis plants; experiment: Pistil maturation on sprayed Cannabis plants
# Text: (§1) Trials were done with sesame oil alone, in place of bud finisher and bud shield embodiments.
# (§2) Add all ingredients to a gallon of water 7. Shake or mix well. Pour the final mixture 8 through a double mesh screen 41, into a convenient applicator such as a spray bottle 9 shown in FIG. 6. Apply directly to plants 10 over and under the leaves and flowers and upon the soil. Plant foliage should be sprayed on all surfaces until the solution is dripping off. Spray every 1-7 days as preferred as illustrated in FIG. 7.
# powdery mildew = experiment: Control of powdery mildew, mold and mildew on plants
# Text: as §1
# [2] = test system: trichomes of Cannabis plants; experiment: Trichome maturation on sprayed Cannabis plants
# Text: as §1, §2
structure (smiles),measurement,setting,value
O=C([O-])O.[K+] [Potassium bicarbonate],effect on pistil maturation,[1],fully matures pistils quickly
same,efficacy against powdery mildew / mold and mildew,powdery mildew,very effective
same,effect on trichome maturation,[2],little to no effect
